# Test results: patent publication US20020111274A1, “1-alkyl-3-[1-(substituted phenyl) benzotriazol-6-yl] uracils” (BASF Aktiengesellschaft, priority 2000, published 2002)
# Columns and labels:
# Set-up in all cases: scale not given here
# [1] = test system: CHEAL Lambsquarters, Common; assay: Postemergence herbicidal evaluation, CHEAL; assay type: in vivo, Chenopodium album, L.; conditions: postemergence spray, rated about two-three weeks after treatment
# Method in brief: (§1)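 Ratings from greenhouse plants scored about two to three weeks after a foliar spray; data from multiple tests averaged. Seedlings about two weeks old received roughly 0.006–0.400 kg/ha active compound in 80/20 acetone/water with 1.0% methylated seed oil.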
# [2] = test system: IPOHE Morningglory, Ivyleaf; assay: Preemergence herbicidal evaluation, IPOHE; assay type: in vivo, Ipomoea hederacea, (L.) Jacq.; conditions: preemergence
# Method in brief: (§2)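 Preemergence soil spray: aqueous acetone, ~0.013–0.800 kg/ha, applied right after sowing (seed/potting-soil mix over ~1 in soil). Greenhouse, routine watering. Scored 4–5 wk post-treatment on a rating scale.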
# ABUTH Velvetleaf [3] = assay: Preemergence herbicidal evaluation, ABUTH; assay type: in vivo, Abutilon theophrasti, Medic.; conditions: preemergence
# Method in brief: as §2
# GLXMAW Soybean, Williams [4] = assay: Preemergence herbicidal evaluation, GLXMAW; assay type: in vivo, Glycine max, (L.) Merr. cv Williams; conditions: preemergence
# Method in brief: as §2
# ORYSAT Rice, Tebonnet [5] = assay: Preemergence herbicidal evaluation, ORYSAT; assay type: in vivo, Oryza sativa, (L.); conditions: preemergence
# Method in brief: as §2
# AMBEL Ragweed, Common [6] = assay: Preemergence herbicidal evaluation, AMBEL; assay type: in vivo, Ambrosia artemisifolia, L.; conditions: preemergence
# Method in brief: as §2
# [7] = test system: CHEAL Lambsquarters, Common; assay: Preemergence herbicidal evaluation, CHEAL; assay type: in vivo, Chenopodium album, L.; conditions: preemergence
# Method in brief: as §2
# SETVI Foxtail, Green [8] = assay: Postemergence herbicidal evaluation, SETVI; assay type: in vivo, Setaria viridis, (L.) Beau; conditions: postemergence spray, rated about two-three weeks after treatment
# Method in brief: as §1
# GLXMAW Soybean, Williams [9] = assay: Postemergence herbicidal evaluation, GLXMAW; assay type: in vivo, Glycine max, (L.) Merr. cv Williams; conditions: postemergence spray, rated about two-three weeks after treatment
# Method in brief: as §1
# [10] = test system: IPOHE Morningglory, Ivyleaf; assay: Postemergence herbicidal evaluation, IPOHE; assay type: in vivo, Ipomoea hederacea, (L.) Jacq.; conditions: postemergence spray, rated about two-three weeks after treatment
# Method in brief: as §1
# ABUTH Velvetleaf [11] = assay: Postemergence herbicidal evaluation, ABUTH; assay type: in vivo, Abutilon theophrasti, Medic.; conditions: postemergence spray, rated about two-three weeks after treatment
# Method in brief: as §1
# CASOB Sicklepod [12] = assay: Postemergence herbicidal evaluation, CASOB; assay type: in vivo, Cassia obtusifolia, L.; conditions: postemergence spray, rated about two-three weeks after treatment
# Method in brief: as §1
# AMBEL Ragweed, Common [13] = assay: Postemergence herbicidal evaluation, AMBEL; assay type: in vivo, Ambrosia artemisifolia, L.; conditions: postemergence spray, rated about two-three weeks after treatment
# Method in brief: as §1
# ZEAMX Corn, Field [14] = assay: Preemergence herbicidal evaluation, ZEAMX; assay type: in vivo, Zea mays, L. (Sammel-Bezeichnung); conditions: preemergence
# Method in brief: as §2
# [15] = test system: TRZAWR Wheat, Winter, cv Riband; assay: Preemergence herbicidal evaluation, TRZAWR; assay type: in vivo, Triticum aestivum; conditions: preemergence
# Method in brief: as §2
# GALAP Galium [16] = assay: Preemergence herbicidal evaluation, GALAP; assay type: in vivo, Galium aparine; conditions: preemergence
# Method in brief: as §2
# ORYSAT Rice, Tebonnet [17] = assay: Postemergence herbicidal evaluation, ORYSAT; assay type: in vivo, Oryza sativa, (L.); conditions: postemergence spray, rated about two-three weeks after treatment
# Method in brief: as §1
# SETVI Foxtail, Green [18] = assay: Preemergence herbicidal evaluation, SETVI; assay type: in vivo, Setaria viridis, (L.) Beau; conditions: preemergence
# Method in brief: as §2
# CASOB Sicklepod [19] = assay: Preemergence herbicidal evaluation, CASOB; assay type: in vivo, Cassia obtusifolia, L.; conditions: preemergence
# Method in brief: as §2
# [20] = test system: TRZAWR Wheat, Winter, cv Riband; assay: Postemergence herbicidal evaluation, TRZAWR; assay type: in vivo, Triticum aestivum; conditions: postemergence spray, rated about two-three weeks after treatment
# Method in brief: as §1
# ECHOG Barnyardgrass [21] = assay: Postemergence herbicidal evaluation, ECHOG; assay type: in vivo, Echinochloa crus-galli, (L.) Beau; conditions: postemergence spray, rated about two-three weeks after treatment
# Method in brief: as §1
# ZEAMX Corn, Field [22] = assay: Postemergence herbicidal evaluation, ZEAMX; assay type: in vivo, Zea mays, L. (Sammel-Bezeichnung); conditions: postemergence spray, rated about two-three weeks after treatment
# Method in brief: as §1
# GALAP Galium [23] = assay: Postemergence herbicidal evaluation, GALAP; assay type: in vivo, Galium aparine; conditions: postemergence spray, rated about two-three weeks after treatment
# Method in brief: as §1
# ECHOG Barnyardgrass [24] = assay: Preemergence herbicidal evaluation, ECHOG; assay type: in vivo, Echinochloa crus-galli, (L.) Beau; conditions: preemergence
# Method in brief: as §2
compound,measurement,setting,value
Cc1ccc(-n2nnc3cc(F)c(-n4c(=O)cc(C(F)(F)F)n(C)c4=O)cc32)cc1C [Example 23],Postemergence herbicidal rating CHEAL,[1]; 0.008 kg/ha,3.0
same,Postemergence herbicidal rating CHEAL,[1]; 0.032 kg/ha,4.0
same,Postemergence herbicidal rating CHEAL,[1]; 0.062 kg/ha,9.0
same,IPOHE herbicidal rating,[2]; rate 0.016 kg/ha,0.0
same,IPOHE herbicidal rating,[2]; rate 0.032 kg/ha,0.0
same,IPOHE herbicidal rating,[2]; rate 0.062 kg/ha,0.0
same,IPOHE herbicidal rating,[2]; rate 0.125 kg/ha,1.0
same,ABUTH herbicidal rating,ABUTH Velvetleaf [3]; rate 0.016 kg/ha,0.0
same,ABUTH herbicidal rating,ABUTH Velvetleaf [3]; rate 0.032 kg/ha,3.0
same,ABUTH herbicidal rating,ABUTH Velvetleaf [3]; rate 0.062 kg/ha,9.0
same,ABUTH herbicidal rating,ABUTH Velvetleaf [3]; rate 0.125 kg/ha,9.0
same,GLXMAW herbicidal rating,"GLXMAW Soybean, Williams [4]; rate 0.016 kg/ha",0.0
same,GLXMAW herbicidal rating,"GLXMAW Soybean, Williams [4]; rate 0.032 kg/ha",0.0
same,GLXMAW herbicidal rating,"GLXMAW Soybean, Williams [4]; rate 0.062 kg/ha",0.0
same,GLXMAW herbicidal rating,"GLXMAW Soybean, Williams [4]; rate 0.125 kg/ha",0.0
same,ORYSAT herbicidal rating,"ORYSAT Rice, Tebonnet [5]; rate 0.016 kg/ha",0.0
same,ORYSAT herbicidal rating,"ORYSAT Rice, Tebonnet [5]; rate 0.032 kg/ha",0.0
same,ORYSAT herbicidal rating,"ORYSAT Rice, Tebonnet [5]; rate 0.062 kg/ha",0.0
same,ORYSAT herbicidal rating,"ORYSAT Rice, Tebonnet [5]; rate 0.125 kg/ha",0.0
same,AMBEL herbicidal rating,"AMBEL Ragweed, Common [6]; rate 0.016 kg/ha",0.0
same,AMBEL herbicidal rating,"AMBEL Ragweed, Common [6]; rate 0.032 kg/ha",0.0
same,AMBEL herbicidal rating,"AMBEL Ragweed, Common [6]; rate 0.062 kg/ha",0.0
same,AMBEL herbicidal rating,"AMBEL Ragweed, Common [6]; rate 0.125 kg/ha",1.0
same,CHEAL herbicidal rating,[7]; rate 0.016 kg/ha,0.0
same,CHEAL herbicidal rating,[7]; rate 0.032 kg/ha,7.0
same,CHEAL herbicidal rating,[7]; rate 0.062 kg/ha,9.0
same,CHEAL herbicidal rating,[7]; rate 0.125 kg/ha,9.0
same,Postemergence herbicidal rating SETVI,"SETVI Foxtail, Green [8]; 0.008 kg/ha",7.0
same,Postemergence herbicidal rating SETVI,"SETVI Foxtail, Green [8]; 0.016 kg/ha",9.0
same,Postemergence herbicidal rating SETVI,"SETVI Foxtail, Green [8]; 0.032 kg/ha",9.0
same,Postemergence herbicidal rating SETVI,"SETVI Foxtail, Green [8]; 0.062 kg/ha",9.0
same,Postemergence herbicidal rating GLXMAW,"GLXMAW Soybean, Williams [9]; 0.008 kg/ha",3.5
same,Postemergence herbicidal rating GLXMAW,"GLXMAW Soybean, Williams [9]; 0.016 kg/ha",4.5
same,Postemergence herbicidal rating GLXMAW,"GLXMAW Soybean, Williams [9]; 0.032 kg/ha",4.5
same,Postemergence herbicidal rating GLXMAW,"GLXMAW Soybean, Williams [9]; 0.062 kg/ha",4.5
same,Postemergence herbicidal rating IPOHE,[10]; 0.008 kg/ha,2.0
same,Postemergence herbicidal rating IPOHE,[10]; 0.016 kg/ha,9.0
same,Postemergence herbicidal rating IPOHE,[10]; 0.032 kg/ha,9.0
same,Postemergence herbicidal rating IPOHE,[10]; 0.062 kg/ha,9.0
same,Postemergence herbicidal rating ABUTH,ABUTH Velvetleaf [11]; 0.008 kg/ha,9.0
same,Postemergence herbicidal rating ABUTH,ABUTH Velvetleaf [11]; 0.016 kg/ha,9.0
same,Postemergence herbicidal rating ABUTH,ABUTH Velvetleaf [11]; 0.032 kg/ha,9.0
same,Postemergence herbicidal rating ABUTH,ABUTH Velvetleaf [11]; 0.062 kg/ha,9.0
same,Postemergence herbicidal rating CASOB,CASOB Sicklepod [12]; 0.008 kg/ha,0.0
same,Postemergence herbicidal rating CASOB,CASOB Sicklepod [12]; 0.016 kg/ha,0.0
same,Postemergence herbicidal rating CASOB,CASOB Sicklepod [12]; 0.032 kg/ha,0.0
same,Postemergence herbicidal rating CASOB,CASOB Sicklepod [12]; 0.062 kg/ha,3.0
same,Postemergence herbicidal rating AMBEL,"AMBEL Ragweed, Common [13]; 0.008 kg/ha",0.0
same,Postemergence herbicidal rating AMBEL,"AMBEL Ragweed, Common [13]; 0.016 kg/ha",0.0
same,Postemergence herbicidal rating AMBEL,"AMBEL Ragweed, Common [13]; 0.032 kg/ha",4.0
same,Postemergence herbicidal rating AMBEL,"AMBEL Ragweed, Common [13]; 0.062 kg/ha",9.0
same,ZEAMX herbicidal rating,"ZEAMX Corn, Field [14]; rate 0.016 kg/ha",0.0
same,ZEAMX herbicidal rating,"ZEAMX Corn, Field [14]; rate 0.032 kg/ha",0.0
same,ZEAMX herbicidal rating,"ZEAMX Corn, Field [14]; rate 0.062 kg/ha",0.0
same,ZEAMX herbicidal rating,"ZEAMX Corn, Field [14]; rate 0.125 kg/ha",4.0
same,TRZAWR herbicidal rating,[15]; rate 0.016 kg/ha,0.0
same,TRZAWR herbicidal rating,[15]; rate 0.032 kg/ha,0.0
same,TRZAWR herbicidal rating,[15]; rate 0.062 kg/ha,1.0
same,TRZAWR herbicidal rating,[15]; rate 0.125 kg/ha,3.0
same,GALAP herbicidal rating,GALAP Galium [16]; rate 0.016 kg/ha,0.0
same,GALAP herbicidal rating,GALAP Galium [16]; rate 0.032 kg/ha,0.0
same,GALAP herbicidal rating,GALAP Galium [16]; rate 0.062 kg/ha,0.0
same,GALAP herbicidal rating,GALAP Galium [16]; rate 0.125 kg/ha,0.0
same,Postemergence herbicidal rating ORYSAT,"ORYSAT Rice, Tebonnet [17]; 0.008 kg/ha",2.5
same,Postemergence herbicidal rating ORYSAT,"ORYSAT Rice, Tebonnet [17]; 0.016 kg/ha",3.0
same,Postemergence herbicidal rating ORYSAT,"ORYSAT Rice, Tebonnet [17]; 0.032 kg/ha",3.5
same,Postemergence herbicidal rating ORYSAT,"ORYSAT Rice, Tebonnet [17]; 0.062 kg/ha",4.0
same,SETVI herbicidal rating,"SETVI Foxtail, Green [18]; rate 0.016 kg/ha",3.0
same,SETVI herbicidal rating,"SETVI Foxtail, Green [18]; rate 0.032 kg/ha",8.0
same,SETVI herbicidal rating,"SETVI Foxtail, Green [18]; rate 0.062 kg/ha",9.0
same,SETVI herbicidal rating,"SETVI Foxtail, Green [18]; rate 0.125 kg/ha",9.0
same,CASOB herbicidal rating,CASOB Sicklepod [19]; rate 0.016 kg/ha,0.0
same,CASOB herbicidal rating,CASOB Sicklepod [19]; rate 0.032 kg/ha,0.0
same,CASOB herbicidal rating,CASOB Sicklepod [19]; rate 0.062 kg/ha,0.0
same,CASOB herbicidal rating,CASOB Sicklepod [19]; rate 0.125 kg/ha,0.0
same,Postemergence herbicidal rating TRZAWR,[20]; 0.008 kg/ha,4.0
same,Postemergence herbicidal rating TRZAWR,[20]; 0.016 kg/ha,4.5
same,Postemergence herbicidal rating TRZAWR,[20]; 0.032 kg/ha,5.5
same,Postemergence herbicidal rating TRZAWR,[20]; 0.062 kg/ha,6.5
same,Postemergence herbicidal rating ECHCG,ECHOG Barnyardgrass [21]; 0.008 kg/ha,0.0
same,Postemergence herbicidal rating ECHCG,ECHOG Barnyardgrass [21]; 0.016 kg/ha,0.0
same,Postemergence herbicidal rating ECHCG,ECHOG Barnyardgrass [21]; 0.032 kg/ha,0.0
same,Postemergence herbicidal rating ECHCG,ECHOG Barnyardgrass [21]; 0.062 kg/ha,0.0
same,Postemergence herbicidal rating ZEAMX,"ZEAMX Corn, Field [22]; 0.008 kg/ha",5.5
same,Postemergence herbicidal rating ZEAMX,"ZEAMX Corn, Field [22]; 0.016 kg/ha",7.0
same,Postemergence herbicidal rating ZEAMX,"ZEAMX Corn, Field [22]; 0.032 kg/ha",8.0
same,Postemergence herbicidal rating ZEAMX,"ZEAMX Corn, Field [22]; 0.062 kg/ha",8.5
same,Postemergence herbicidal rating GALAP,GALAP Galium [23]; 0.008 kg/ha,0.0
same,Postemergence herbicidal rating GALAP,GALAP Galium [23]; 0.016 kg/ha,2.0
same,Postemergence herbicidal rating GALAP,GALAP Galium [23]; 0.032 kg/ha,2.0
same,Postemergence herbicidal rating GALAP,GALAP Galium [23]; 0.062 kg/ha,2.0
same,ECHCG herbicidal rating,ECHOG Barnyardgrass [24]; rate 0.016 kg/ha,0.0
same,ECHCG herbicidal rating,ECHOG Barnyardgrass [24]; rate 0.032 kg/ha,2.0
same,ECHCG herbicidal rating,ECHOG Barnyardgrass [24]; rate 0.062 kg/ha,5.0
same,ECHCG herbicidal rating,ECHOG Barnyardgrass [24]; rate 0.125 kg/ha,8.0
